The values below come from ChEMBL document CHEMBL4304773, “Nitroimidazole-containing compounds and their antibacterial and antitubercular activities” (2019).

Molecules are shown by their SMILES. ≈ marks a conversion by molar mass, not a printed value.

What all share (assay type): functional
In one assay the test system is Bacillus subtilis. Put plainly: Antibacterial activity against Bacillus subtilis.
For assay [1], the system named is Staphylococcus aureus. Put plainly: Antibacterial activity against Staphylococcus aureus.
The subject of assay [2] is Pseudomonas aeruginosa. As to the kind of experiment: Antibacterial activity against Pseudomonas aeruginosa.
The test system of assay [3] is Escherichia coli. As to the kind of experiment: Antibacterial activity against Escherichia coli.
Assay [4] has as its system Pseudomonas aeruginosa. Put plainly: Antibacterial activity against Pseudomonas aeruginosa after 24 hrs.
The subject of assay [5] is Escherichia coli. Put plainly: Antibacterial activity against Escherichia coli ATCC 25922 after 24 hrs. As to conditions: ATCC 25922, 24 h.
In a further assay the test system is Enterococcus faecalis. Put plainly: Antibacterial activity against Enterococcus faecalis after 24 hrs.
In assay [6] the test system is Staphylococcus aureus. As to the kind of experiment: Antibacterial activity against methicillin-resistant Staphylococcus aureus after 24 hrs.
For assay [7], the system named is Staphylococcus aureus. Put plainly: Antibacterial activity against Staphylococcus aureus ATCC 25923 after 24 hrs. The note with it: ATCC 25923, 24 h.
Assay [8] deals with Pseudomonas aeruginosa. As to the kind of experiment: Antibacterial activity against Pseudomonas aeruginosa ATCC 27853 after 24 hrs. The note with it: ATCC 27853, 24 h.
In assay [9] the test system is Staphylococcus aureus. Put plainly: Antibacterial activity against Staphylococcus aureus ATCC 29213 after 24 hrs. As to conditions: ATCC 29213, 24 h.
The test system of a further assay is Klebsiella pneumoniae. As to the kind of experiment: Antibacterial activity against Klebsiella pneumoniae after 24 hrs.
The subject of the next assay is Candida albicans. As to the kind of experiment: Antifungal activity against Candida albicans.

By MIC is commonly meant the smallest concentration in the dilution series that meets the test's criterion for growth inhibition. Read a low MIC as inhibition by little substance.

With `NC[C@H]1O[C@H](O[C@H]2[C@H](O)[C@@H](O[C@H]3O[C@H](CO)[C@@H](O)[C@H](N)[C@H]3O)[C@H](N)C[C@@H]2N)[C@H](O)[C@@H](O)[C@@H]1O` [KANAMYCIN], the MIC against Bacillus subtilis, against Staphylococcus aureus [1], in the assay with Pseudomonas aeruginosa [2] and with Escherichia coli [3] was 1.56 to 3.12 µg/mL (≈ 3.22 to 6.44 µM) each time.
With `COc1cc(/C=C(\C#N)n2cc([N+](=O)[O-])nc2C)c2c(c1OCc1ccc(Cl)cc1)CN1CCc3cc4c(cc3C1C2)OCO4` (stereo unspecified), the MIC against Pseudomonas aeruginosa [4], in the assay with Escherichia coli [5], against Enterococcus faecalis, against Staphylococcus aureus [6], against Staphylococcus aureus [7] and in the assay on Pseudomonas aeruginosa [8] was 3 to 1020 µM (≈ 1.88 to 639 µg/mL) in each case. The MIC in the assay on Staphylococcus aureus [9] and in the assay on Klebsiella pneumoniae was 3 to 1020 µM (≈ 1.88 to 639 µg/mL) throughout.
For `COc1ccccc1Cc1nnc(Cn2c([N+](=O)[O-])cnc2C)o1`, the MIC in the assay with Bacillus subtilis, in the assay with Staphylococcus aureus [1], in the assay with Pseudomonas aeruginosa [2] and against Escherichia coli [3] was 3.12 to 4.56 µg/mL (≈ 9.47 to 13.8 µM) each time.
On to `OC(Cn1cncn1)(Cn1cncn1)c1ccc(F)cc1F` [FLUCONAZOLE], for which the MIC against Bacillus subtilis, against Staphylococcus aureus [1], in the assay on Pseudomonas aeruginosa [2], against Candida albicans and against Escherichia coli [3] was 0.25 µg/mL (≈ 0.816 µM) each time.
For the molecule `COc1cc(/C=C(\C#N)n2cc([N+](=O)[O-])nc2C)c2c(c1OCc1ccc([N+](=O)[O-])cc1)CN1CCc3cc4c(cc3C1C2)OCO4` (stereo unspecified), the MIC against Pseudomonas aeruginosa [4], with Escherichia coli [5], against Enterococcus faecalis, against Staphylococcus aureus [6], against Staphylococcus aureus [7] and in the assay with Pseudomonas aeruginosa [8] was 3 to 1020 µM (≈ 1.91 to 650 µg/mL) throughout. In addition, the MIC in the assay on Staphylococcus aureus [9] and with Klebsiella pneumoniae was 3 to 1020 µM (≈ 1.91 to 650 µg/mL) each time.
Take `CC(=O)N1N=C(Cn2c([N+](=O)[O-])cnc2C)OC1(C)c1ccc(Br)cc1` (stereo unspecified): the MIC in the assay on Bacillus subtilis, against Staphylococcus aureus [1], in the assay with Pseudomonas aeruginosa [2], with Candida albicans and against Escherichia coli [3] was 0.25 to 0.5 µg/mL (≈ 0.592 to 1.18 µM) in each case.
Turning to `COc1cc(/C=C(\C#N)n2cc([N+](=O)[O-])nc2C)c2c(c1OCc1cccc(Cl)c1)CN1CCc3cc4c(cc3C1C2)OCO4` (stereo unspecified), the MIC against Pseudomonas aeruginosa [4], against Escherichia coli [5], with Enterococcus faecalis, against Staphylococcus aureus [6], with Staphylococcus aureus [7] and against Pseudomonas aeruginosa [8] was 3 to 1020 µM (≈ 1.88 to 639 µg/mL) each time. The MIC in the assay on Staphylococcus aureus [9] and against Klebsiella pneumoniae was 3 to 1020 µM (≈ 1.88 to 639 µg/mL) in each case.
Regarding `CC(=O)N1N=C(Cn2c([N+](=O)[O-])cnc2C)OC1c1ccc2c(c1)OCO2` (stereo unspecified), the MIC against Bacillus subtilis, against Staphylococcus aureus [1], in the assay on Pseudomonas aeruginosa [2], in the assay with Candida albicans and with Escherichia coli [3] was 0.25 to 0.5 µg/mL (≈ 0.67 to 1.34 µM) each time.
In the case of `CC(=O)N1N=C(Cn2c([N+](=O)[O-])cnc2C)OC1c1ccc(Cl)cc1` (stereo unspecified), the MIC with Bacillus subtilis, in the assay on Staphylococcus aureus [1], in the assay with Pseudomonas aeruginosa [2], against Candida albicans and with Escherichia coli [3] was 0.25 to 0.5 µg/mL (≈ 0.687 to 1.37 µM) in each case.
For the molecule `CC(=O)N1N=C(Cn2c([N+](=O)[O-])cnc2C)OC1c1ccc(C)cc1` (stereo unspecified), the MIC against Bacillus subtilis, against Staphylococcus aureus [1], against Pseudomonas aeruginosa [2], with Candida albicans and against Escherichia coli [3] was 0.25 to 0.5 µg/mL (≈ 0.728 to 1.46 µM) each time.
On to `COc1cc(/C=C(\C#N)n2cc([N+](=O)[O-])nc2C)c2c(c1OCc1ccccc1Cl)CN1CCc3cc4c(cc3C1C2)OCO4` (stereo unspecified), for which the MIC against Pseudomonas aeruginosa [4], against Escherichia coli [5], against Enterococcus faecalis, against Staphylococcus aureus [6], in the assay with Staphylococcus aureus [7] and against Pseudomonas aeruginosa [8] was 3 to 1020 µM (≈ 1.88 to 639 µg/mL) throughout. Further, the MIC against Staphylococcus aureus [9] and in the assay on Klebsiella pneumoniae was 3 to 1020 µM (≈ 1.88 to 639 µg/mL) in each case.
On to `NC(=O)N/N=C/c1ccc([N+](=O)[O-])o1` [NITROFURAZONE], for which the MIC against Bacillus subtilis, in the assay with Staphylococcus aureus [1], in the assay with Pseudomonas aeruginosa [2], against Candida albicans and against Escherichia coli [3] was 0.25 to 0.5 µg/mL (≈ 1.26 to 2.52 µM) throughout.
For `CCOc1c(OC)cc(/C=C(\C#N)n2cc([N+](=O)[O-])nc2C)c2c1CN1CCc3cc4c(cc3C1C2)OCO4` (stereo unspecified), the MIC in the assay on Pseudomonas aeruginosa [4], in the assay on Escherichia coli [5], with Enterococcus faecalis, in the assay on Staphylococcus aureus [6], in the assay on Staphylococcus aureus [7] and in the assay on Pseudomonas aeruginosa [8] was 3 to 1020 µM (≈ 1.59 to 541 µg/mL) in each case. The MIC with Staphylococcus aureus [9] and against Klebsiella pneumoniae was 3 to 1020 µM (≈ 1.59 to 541 µg/mL) throughout.
As to `CCCCCCCCOc1c(OC)cc(/C=C(\C#N)n2cc([N+](=O)[O-])nc2C)c2c1CN1CCc3cc4c(cc3C1C2)OCO4` (stereo unspecified), the MIC in the assay on Pseudomonas aeruginosa [4], in the assay on Escherichia coli [5], with Enterococcus faecalis, against Staphylococcus aureus [6], in the assay with Staphylococcus aureus [7] and against Pseudomonas aeruginosa [8] was 3 to 1020 µM (≈ 1.84 to 627 µg/mL) throughout. Further, the MIC in the assay with Staphylococcus aureus [9] and in the assay with Klebsiella pneumoniae was 3 to 1020 µM (≈ 1.84 to 627 µg/mL) each time.
